Substitutions are numbered along the chain they refer to. Read-outs that look alike come from different tables or passages of the source.
What was measured:
GluE1αA S642R = format: cell-based, Trichoplax adhaerens; settings: […]; for normalized conductance (G-V, Figure 5g), Avg: Na vs Na; for I-V current, Na vs Na, Avg of recordings: Figure 5b
GluE1αA S642Q = biological target: T1, GluE1αA S642Q (Trichoplax adhaerens, UniProt B3SAW0, S167Q); format: cell-based; settings: […]; for normalized conductance (G-V, Figure 5g), Avg: Na vs Na; for I-V current, Na vs Na, Avg of recordings: Figure 5b
T1 sequence (B3SAW0 1-341 S167Q): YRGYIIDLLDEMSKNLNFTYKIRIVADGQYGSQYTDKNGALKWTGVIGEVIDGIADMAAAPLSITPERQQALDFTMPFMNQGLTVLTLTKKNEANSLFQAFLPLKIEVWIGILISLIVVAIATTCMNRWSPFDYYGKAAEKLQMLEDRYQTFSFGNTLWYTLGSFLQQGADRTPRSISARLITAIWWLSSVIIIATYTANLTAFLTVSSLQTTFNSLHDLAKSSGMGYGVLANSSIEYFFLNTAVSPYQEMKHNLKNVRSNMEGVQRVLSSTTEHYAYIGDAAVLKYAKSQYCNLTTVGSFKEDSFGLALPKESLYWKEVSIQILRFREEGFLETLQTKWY

GluE1αA D646A variant = tested on: GluE1αA D646A variant
Text: (§1) The cDNA of the T. adhaerens GluE1αA receptor was cloned into the mammalian expression vector pIRES2-EGFP, using a 5’ nested primer that inserted a mammalian consensus Kozak sequence of […] (Supplementary Table 5). Several mutants/variants of this receptor where also prepared via site directed mutagenesis using standard procedures and primers listed in Supplementary Table 5. For electrophysiological comparisons, we commissioned GenScript (USA) to synthesize the cDNA of the human GluA2 […] receptor (NCBI accession number NP_001077088.2), which was cloned into the pIRES2-EGFP vector with a Kozak sequence flanking the start codon and restriction enzymes SalI and BamHI at the 5’ and 3’ ends of the cDNA, respectively. Receptor cDNAs in the various pIRES2 constructs were transfected into Chinese Hamster Ovary-K1 (CHO-K1; Sigma) cells cultured in Dulbecco’s Modified Eagle Medium Nutrient Mixture F-12 (DMEM/F12) supplemented with 10% Fetal Bovine Serum (FBS) and 1% penicillin-streptomycin at 37°C. Transfections were done with 2 μg of plasmid vector using the transfecting reagent PolyJet^TM (SignaGen Laboratories, USA) according to the manufacturer’s instructions and plated onto glass coverslips in 35 mm dishes the next day. Transfected cells were incubated at 28°C for 2 to 4 days, then coverslips were transferred to a new 60 mm dish with 5 mL of external recording solution. […] Agonists and pharmacological compounds used in this study were dissolved in corresponding external solutions. […] Patch pipettes were pulled using a P-1000 micropipette puller (Sutter, USA), from thick-walled borosilicate tubing (1.5 and 0.86 outer and inner diameter, respectively), to a resistance of between 1 and 6 megaohms.

[1] = biological target: T2, GluE1αA wildtype receptor (Trichoplax adhaerens, UniProt B3SAW0); settings: wt
T2 sequence (B3SAW0 1-341): T1 sequence (B3SAW0 1-341 S167Q) with Q167S
Text: as §1

## [Na+] [Na]
GluE1αA S642R; Vm 0.00
  normalized conductance (G-V, Figure 5g), Avg: 0.18
  I-V current, Na vs Na, Avg of recordings: 0.00344
GluE1αA S642R; Vm 20.00
  normalized conductance (G-V, Figure 5g), Avg: 0.18
  I-V current, Na vs Na, Avg of recordings: 0.06
GluE1αA S642R; Vm 40.00
  normalized conductance (G-V, Figure 5g), Avg: 0.22
  I-V current, Na vs Na, Avg of recordings: 0.13
GluE1αA S642R; Vm 60.00
  normalized conductance (G-V, Figure 5g), Avg: 0.29
  I-V current, Na vs Na, Avg of recordings: 0.22
GluE1αA S642R; Vm 80.00
  normalized conductance (G-V, Figure 5g), Avg: 0.33
  I-V current, Na vs Na, Avg of recordings: 0.33
GluE1αA S642R; Vm -20.00
  normalized conductance (G-V, Figure 5g), Avg: 0.24
  I-V current, Na vs Na, Avg of recordings: -0.07
GluE1αA S642R; Vm -40.00
  normalized conductance (G-V, Figure 5g), Avg: 0.36
  I-V current, Na vs Na, Avg of recordings: -0.16
GluE1αA S642R; Vm -60.00
  normalized conductance (G-V, Figure 5g), Avg: 0.62
  I-V current, Na vs Na, Avg of recordings: -0.32
GluE1αA S642R; Vm -80.00
  normalized conductance (G-V, Figure 5g), Avg: 1.00
  I-V current, Na vs Na, Avg of recordings: -0.59
GluE1αA S642Q; Vm 0.00
  normalized conductance (G-V, Figure 5g), Avg: 0.20
  I-V current, Na vs Na, Avg of recordings: 0.0017
GluE1αA S642Q; Vm 20.00
  normalized conductance (G-V, Figure 5g), Avg: 0.25
  I-V current, Na vs Na, Avg of recordings: 0.0327
GluE1αA S642Q; Vm 40.00
  normalized conductance (G-V, Figure 5g), Avg: 0.52
  I-V current, Na vs Na, Avg of recordings: 0.13
GluE1αA S642Q; Vm 60.00
  normalized conductance (G-V, Figure 5g), Avg: 0.72
  I-V current, Na vs Na, Avg of recordings: 0.30
GluE1αA S642Q; Vm 80.00
  normalized conductance (G-V, Figure 5g), Avg: 0.79
  I-V current, Na vs Na, Avg of recordings: 0.51
GluE1αA S642Q; Vm -20.00
  normalized conductance (G-V, Figure 5g), Avg: 0.51
  I-V current, Na vs Na, Avg of recordings: -0.07
GluE1αA S642Q; Vm -40.00
  normalized conductance (G-V, Figure 5g), Avg: 0.84
  I-V current, Na vs Na, Avg of recordings: -0.26
GluE1αA S642Q; Vm -60.00
  normalized conductance (G-V, Figure 5g), Avg: 0.93
  I-V current, Na vs Na, Avg of recordings: -0.50
GluE1αA S642Q; Vm -80.00
  normalized conductance (G-V, Figure 5g), Avg: 1.00
  I-V current, Na vs Na, Avg of recordings: -0.73

## NCCCNCCCCNCCCN [spermine]
GluE1αA D646A variant; 200 µM extracellular spermine
  reduction in peak inward current (percent block): 14.0 ± 1.1%
GluE1αA D646A variant; 1000 µM extracellular spermine
  reduction in peak inward current: 40.2 ± 3.4%
GluE1αA D646A variant; spermine 200 µM extracellular
  normalized current elicited by 3 mM glycine with co-applied spermine, Avg: 0.8603
GluE1αA D646A variant; spermine 1000 µM extracellular
  normalized current elicited by 3 mM glycine with co-applied spermine, Avg: 0.5979
[1]; spermine 200 µM extracellular
  normalized current elicited by 3 mM glycine with co-applied spermine, Avg: 0.8673
[1]; spermine 1000 µM extracellular
  normalized current elicited by 3 mM glycine with co-applied spermine, Avg: 0.8213
